Results published in patent publication US8030354B2, “Substituted biphenyl GPR40 modulators” (Amgen Inc., priority 2007, dated 2011).

Tests used:
GPR40 [1] = biological target: T1, GPR40 (Homo sapiens, UniProt O14842); assay: Cell-based aequorin assay (CHO cells stably expressing GPR40 and aequorin); parameters: expressed in transfected cells; host or cells: CHO cells stably transfected with GPR40 and aequorin; details: activation of human GPR40, CHO cells, 0.01% HSA
Summary of the method: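 CHO cells stably co-expressing GPR40 and aequorin, loaded with coelenterazine (1 ug/mL, 2 h, room temperature) in H/HBSS with 20 mM Hepes and 0.01% fatty acid-free HSA. Serially diluted compounds added; luminescence recorded over 20 s. EC50 from dose-response of maximum relative light units.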

GPR40 [2] = biological target: T1, GPR40; assay: Inositol phosphate accumulation assay (A9_GPR40 cells); format: cell-based; parameters: expressed in transfected cells; host or cells: CHO cells stably transfected with GPR40 and aequorin; details: inositol phosphate assay, A9_GPR40 cells, 1 hour; read-out: IP3 EC50
Summary of the method: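 [^3H] inositol phosphate accumulation was measured by SPA after 1 h compound exposure at 37° C in HBSS/10 mM LiCl containing HSA, ending with a 20 mM formic acid quench. The GPR40-transfected A9 cells had first been labelled overnight (16 h) with 1 μCi/mL ^3H-inositol.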

T1 sequence (O14842 whole entry): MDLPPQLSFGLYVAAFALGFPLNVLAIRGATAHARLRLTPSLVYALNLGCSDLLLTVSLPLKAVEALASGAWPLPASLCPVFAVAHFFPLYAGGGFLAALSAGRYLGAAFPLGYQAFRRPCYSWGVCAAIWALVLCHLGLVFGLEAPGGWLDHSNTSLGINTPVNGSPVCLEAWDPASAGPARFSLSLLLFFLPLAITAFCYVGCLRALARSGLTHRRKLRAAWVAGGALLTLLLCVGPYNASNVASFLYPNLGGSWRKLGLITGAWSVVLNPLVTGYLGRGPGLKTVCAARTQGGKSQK

SMILES | EC50 (GPR40 [1]) [nM] | EC50 (GPR40 [2]) [nM]
COc1ccc(F)c(-c2ccc(COc3cccc([C@@H](CC(=O)O)C4CC4)c3)cc2CC(C)C)c1 (single isomer, unassigned) [Example 66.20, (3S)-3-Cyclopropyl-3-(3-(((2′-fluoro-5′-(methyloxy)-2-(2-methylpropyl)-1,1′-biphenyl-4-yl)methyl)oxy)phenyl)propanoic acid or (3R)-3-cyclopropyl-3-(3-(((2′-fluoro-5′-(methyloxy)-2-(2-methylpropyl)-1,1′-biphenyl-4-yl)methyl)oxy)phenyl)propanoic acid] | 100 to 1000 | 10 to 100
COc1ccc(F)c(-c2ccc(COc3cccc([C@@H](CC(=O)O)C4CC4)c3)cc2CN2[C@H](C)CC[C@H]2C)c1 (single isomer, unassigned) [Example 66.71, (3S)-3-Cyclopropyl-3-(3-(((2-(((2R,5R)-2,5-dimethyl-1-pyrrolidinyl)methyl)-2′-fluoro-5′-(methyloxy)-1,1′-biphenyl-4-yl)methyl)oxy)phenyl)propanoic acid or (3R)-3-cyclopropyl-3-(3-(((2-(((2R,5R)-2,5-dimethyl-1-pyrrolidinyl)methyl)-2′-fluoro-5′-(methyloxy)-1,1′-biphenyl-4-yl)methyl)oxy)phenyl)propanoic acid] | 100 to 1000 | 100 to 1000
COCC(C)(C)C(OC)c1cc(COc2cccc(C(CC(=O)O)C3CC3)c2)ccc1-c1cc(OC)ccc1F (single isomer, unassigned) [Example 66.42, (S)-3-Cyclopropyl-3-{3-[2-(1,3-dimethoxy-2,2-dimethyl-propyl)-2′-fluoro-5′-methoxy-biphenyl-4-ylmethoxy]-phenyl}-propionic acid or (S)-3-Cyclopropyl-3-{3-[2-(1,3-dimethoxy-2,2-dimethyl-propyl)-2′-fluoro-5′-methoxy-biphenyl-4-ylmethoxy]-phenyl}-propionic acid] | 100 to 1000 | 10 to 100
CCCC(CC(=O)O)c1cccc(OCc2ccc(-c3cc(OC)ccc3F)c(OC3CCCCCC3)c2)c1 (single isomer, unassigned) [Example 67.2, (3R)-3-(3-(((2-(Cycloheptyloxy)-2′-fluoro-5′-(methyloxy)-1,1′-biphenyl-4-yl)methyl)oxy)phenyl)hexanoic acid or (3S)-3-(3-(((2-(cycloheptyloxy)-2′-fluoro-5′-(methyloxy)-1,1′-biphenyl-4-yl)methyl)oxy)phenyl)hexanoic acid] | 100 to 1000 | 100 to 1000
COc1ccc(F)c(-c2ccc(COc3cccc(CCC(=O)O)c3)cc2C2=CCCC2)c1 [Example 39, 3-[3-(2-Cyclopent-1-enyl-2′-fluoro-5′-methoxy-biphenyl-4-ylmethoxy)-phenyl]-propionic acid] | 1000 to 10000 | 100 to 1000
COc1cc(-c2cc(F)c(COc3cccc([C@@H](CC(=O)O)C4CC4)c3F)cc2[C@H]2CCCC2(C)C)c(F)cn1 (single isomer, unassigned) [Example 83.34] | 10 to 100 | < 10
COc1ccc(F)c(-c2ccc(COc3cccc([C@H](C)CC(=O)O)c3)cc2OC(F)(F)F)c1 (single isomer, unassigned) [Example 46, (3R)-3-(3-(((2′-Fluoro-5′-(methyloxy)-2-((trifluoromethyl)oxy)-1,1′-biphenyl-4-yl)methyl)oxy)phenyl)butanoic acid or (3S)-3-(3-(((2′-fluoro-5′-(methyloxy)-2-((trifluoromethyl)oxy)-1,1′-biphenyl-4-yl)methyl)oxy)phenyl)butanoic acid] | 100 to 1000 | 1000 to 10000
COc1ccc(F)c(-c2ccc(COc3cccc([C@@H](CC(=O)O)C4CC4)c3F)cc2[C@@H](OC)C2(C)CC2)c1 (single isomer, unassigned) [Example 83.22] | 10 to 100 | < 10
COc1cc(-c2ccc(COc3cccc(C(CC(=O)O)CC4CC4)c3F)cc2C2CCCC2(C)C)c(F)cn1 (single isomer, unassigned) [Example 84.8] | 100 to 1000 | < 10
CC1(C)CCC=C1c1cc(COc2cccc([C@@H](CC(=O)O)C3CC3)c2F)ccc1-c1cc(C(F)F)ccc1F (single isomer, unassigned) [Example 83.12, (3S)-3-Cyclopropyl-3-(3-(((5′-(difluoromethyl)-2-(5,5-dimethyl-1-cyclopenten-1-yl)-2′-fluoro-1,1′-biphenyl-4-yl)methyl)oxy)-2-fluorophenyl)propanoic acid or (3R)-3-cyclopropyl-3-(3-(((5′-(difluoromethyl)-2-(5,5-dimethyl-1-cyclopenten-1-yl)-2′-fluoro-1,1′-biphenyl-4-yl)methyl)oxy)-2-fluorophenyl)propanoic acid] | 100 to 1000 | 10 to 100
COc1cc(-c2cc(F)c(COc3cccc(C(C)(C)CC(=O)O)c3)cc2C2CCCC2(C)C)c(F)cn1 (single isomer, unassigned) [Example 85.5, 3-(3-(((5-((1S)-2,2-Dimethylcyclopentyl)-2-fluoro-4-(5-fluoro-2-(methyloxy)-4-pyridinyl)phenyl)methyl)oxy)phenyl)-3-methylbutanoic acid or 3-(3-(((5-((1R)-2,2-dimethylcyclopentyl)-2-fluoro-4-(5-fluoro-2-(methyloxy)-4-pyridinyl)phenyl)methyl)oxy)phenyl)-3-methylbutanoic acid] | 100 to 1000 | 10 to 100
CCc1cccc(-c2ccc(COc3cccc([C@@H](CC(=O)O)C4CC4)c3F)cc2[C@H]2CCCC2(C)C)c1 (single isomer, unassigned) [Example 83.28] | 100 to 1000 | 10 to 100

Next, values leading:

EC50 (GPR40 [1]) [nM] | EC50 (GPR40 [2]) [nM] | SMILES
100 to 1000 | 10 to 100 | COc1ccc(F)c(-c2ccc(COc3cccc(C(C)CC(=O)O)c3)cc2C2=CCC(C)(C)CC2)c1 (single isomer, unassigned) [Example 64.5, (3R)-3-(3-(((2-(4,4-Dimethyl-1-cyclohexen-1-yl)-2′-fluoro-5′-(methyloxy)-1,1′-biphenyl-4-yl)methyl)oxy)phenyl)butanoic acid or (3S)-3-(3-(((2-(4,4-dimethyl-1-cyclohexen-1-yl)-2′-fluoro-5′-(methyloxy)-1,1′-biphenyl-4-yl)methyl)oxy)phenyl)butanoic acid]
100 to 1000 | 10 to 100 | COc1ccc(F)c(-c2ccc(COc3cc(F)cc(C(CC(=O)O)CC4CC4)c3)cc2C2=CCCC2(C)C)c1 (single isomer, unassigned) [Example 89.2, (3R)-4-Cyclopropyl-3-(3-(((2-(5,5-dimethyl-1-cyclopenten-1-yl)-2′-fluoro-5′-(methyloxy)-1,1′-biphenyl-4-yl)methyl)oxy)-5-fluorophenyl)butanoic acid or (3S)-4-cyclopropyl-3-(3-(((2-(5,5-dimethyl-1-cyclopenten-1-yl)-2′-fluoro-5′-(methyloxy)-1,1′-biphenyl-4-yl)methyl)oxy)-5-fluorophenyl)butanoic acid]
100 to 1000 | < 10 | COc1ccc(F)c(-c2ccc(COc3cccc(C(CC(=O)O)CC4CC4)c3)cc2C2CCCCC2(C)C)c1 (single isomer, unassigned) [Example 69.36]
100 to 1000 | 10 to 100 | COc1ccc(F)c(-c2ccc(COc3cccc([C@@H](CC(=O)O)[C@@H]4C[C@H]4C)c3)cc2C2=CCCC2(C)C)c1 (single isomer, unassigned) [Example 93.2]
100 to 1000 | 100 to 1000 | COc1ccc(F)c(-c2ccc(COc3cc(CCC(=O)O)ccn3)cc2C2=CCCC2(C)C)c1 [Example 95, 3-(2-(((2-(5,5-Dimethyl-1-cyclopenten-1-yl)-2′-fluoro-5′-(methyloxy)-1,1′-biphenyl-4-yl)methyl)oxy)-4-pyridinyl)propanoic acid]
10 to 100 | 10 to 100 | COc1ccc(F)c(-c2ccc(COc3cccc([C@@H](CC(=O)O)CC4CC4)c3)cc2CC(C)(C)C)c1 (single isomer, unassigned) [Example 69.16, (3R)-4-Cyclopropyl-3-(3-(((2-(2,2-dimethylpropyl)-2′-fluoro-5′-(methyloxy)-1,1′-biphenyl-4-yl)methyl)oxy)phenyl)butanoic acid or (3S)-4-cyclopropyl-3-(3-(((2-(2,2-dimethylpropyl)-2′-fluoro-5′-(methyloxy)-1,1′-biphenyl-4-yl)methyl)oxy)phenyl)butanoic acid]
100 to 1000 | 10 to 100 | COc1ccc(F)c(-c2ccc(COc3cccc(C(CC(=O)O)CC4CC4)c3)cc2C2=CCCC2(C)C)c1 (single isomer, unassigned) [Example 69.6, (3R)-4-Cyclopropyl-3-(3-(((2-(5,5-dimethyl-1-cyclopenten-1-yl)-2′-fluoro-5′-(methyloxy)-1,1′-biphenyl-4-yl)methyl)oxy)phenyl)butanoic acid or (3S)-4-cyclopropyl-3-(3-(((2-(5,5-dimethyl-1-cyclopenten-1-yl)-2′-fluoro-5′-(methyloxy)-1,1′-biphenyl-4-yl)methyl)oxy)phenyl)butanoic acid]
100 to 1000 | 10 to 100 | CCC[C@H](CC(=O)O)c1cccc(OCc2ccc(-c3cc(OC)ccc3F)c(C3=CCCC3(C)C)c2)c1 (single isomer, unassigned) [Example 59, (3R)-3-(3-(((2-(5,5-Dimethyl-1-cyclopenten-1-yl)-2′-fluoro-5′-(methyloxy)-1,1′-biphenyl-4-yl)methyl)oxy)phenyl)hexanoic acid or (3S)-3-(3-(((2-(5,5-dimethyl-1-cyclopenten-1-yl)-2′-fluoro-5′-(methyloxy)-1,1′-biphenyl-4-yl)methyl)oxy)phenyl)hexanoic acid]
